# Several values for one entry are separate records, joined by “and”; a condition that tells them apart may be missing. Equal entries are not always repeated. Toxic doses and inconclusive results are not listed.
# Tested on: L1210 leukemia ip in BDF1 mice, survival T/C
# Assay: NCI In Vivo Anticancer Drug Screen. Data for tumor model L1210 Leukemia (intraperitoneal) in B6D2F1 (BDF1) mice
# Conditions: endpoint: mean survival time, higher = longer survival
# How it was run: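 Mice bearing the transplanted tumor received compound or vehicle. Survival of the treated group was divided by that of the vehicle-treated control group to give the ratio.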
# [1] = dose: 100.0 mg/kg/injection, schedule: Q01DX009 (ip), vehicle: saline with Tween-80
# [2] = dose: 100.0 mg/kg/injection, schedule: Q04DX003 (ip), vehicle: saline with Tween-80
# [3] = dose: 200.0 mg/kg/injection, schedule: Q01DX009 (ip), vehicle: saline with Tween-80
# [4] = dose: 200.0 mg/kg/injection, schedule: Q04DX003 (ip), vehicle: saline with Tween-80
# [5] = dose: 400.0 mg/kg/injection, schedule: Q01DX009 (ip), vehicle: saline with Tween-80
compound,measurement,setting,value
CCOC(=O)c1ccc(NC(=S)NC(=O)C(C)Oc2ccccc2)cc1 (centres undefined),T/C,"dose: 100.0 mg/kg/injection, schedule: Q01DX001 (ip), vehicle: saline with Tween-80",102 % of control
same,T/C,[1],92 % of control and 103 % of control
same,T/C,"dose: 100.0 mg/kg/injection, schedule: Q04DX002 (ip), vehicle: saline with Tween-80",93 % of control and 106 % of control
same,T/C,[2],93 % of control
same,T/C,"dose: 200.0 mg/kg/injection, schedule: Q01DX001 (ip), vehicle: saline with Tween-80",94 % of control
same,T/C,[3],99 % of control and 112 % of control
same,T/C,"dose: 200.0 mg/kg/injection, schedule: Q04DX002 (ip), vehicle: saline with Tween-80",93 % of control and 106 % of control
same,T/C,[4],93 % of control
same,T/C,"dose: 400.0 mg/kg/injection, schedule: Q01DX001 (ip), vehicle: saline with Tween-80",108 % of control
same,T/C,[5],97 % of control and 100 % of control
same,T/C,"dose: 400.0 mg/kg/injection, schedule: Q04DX002 (ip), vehicle: saline with Tween-80",92 % of control and 93 % of control
COC1C(CO)OC(n2cnc3c(=S)nc(N)[nH]c32)C1O (centres undefined),T/C,"dose: 25.0 mg/kg/injection, schedule: Q01DX009 (ip), vehicle: carboxymethylcellulose (CMC)",105 % of control
same,T/C,"dose: 25.0 mg/kg/injection, schedule: Q01DX009 (ip), vehicle: saline",100 % of control
same,T/C,"dose: 50.0 mg/kg/injection, schedule: Q01DX009 (ip), vehicle: carboxymethylcellulose (CMC)",103 % of control
same,T/C,"dose: 50.0 mg/kg/injection, schedule: Q01DX009 (ip), vehicle: saline",116 % of control
same,T/C,"dose: 100.0 mg/kg/injection, schedule: Q01DX001 (ip), vehicle: carboxymethylcellulose (CMC)",111 % of control
same,T/C,"dose: 100.0 mg/kg/injection, schedule: Q01DX009 (ip), vehicle: saline",157 % of control
same,T/C,"dose: 200.0 mg/kg/injection, schedule: Q01DX009 (ip), vehicle: carboxymethylcellulose (CMC)",155 % of control
same,T/C,"dose: 200.0 mg/kg/injection, schedule: Q01DX009 (ip), vehicle: saline",168 % of control
same,T/C,"dose: 400.0 mg/kg/injection, schedule: Q01DX001 (ip), vehicle: carboxymethylcellulose (CMC)",154 % of control and 158 % of control
CC(C)(C)S(=O)(=O)c1nc2ccccc2s1,T/C,"dose: 100.0 mg/kg/injection, schedule: Q04DX003 (ip), vehicle: Klucel (hydroxypropylcellulose) (HPC)",93 % of control
same,T/C,"dose: 200.0 mg/kg/injection, schedule: Q04DX003 (ip), vehicle: Klucel (hydroxypropylcellulose) (HPC)",107 % of control
same,T/C,"dose: 400.0 mg/kg/injection, schedule: Q04DX003 (ip), vehicle: Klucel (hydroxypropylcellulose) (HPC)",90 % of control
CCCCCC1(C=O)C(=O)NC(=O)N1C (centres undefined),T/C,"dose: 100.0 mg/kg/injection, schedule: Q01DX001 (ip), vehicle: saline",102 % of control
same,T/C,"dose: 200.0 mg/kg/injection, schedule: Q01DX001 (ip), vehicle: saline",93 % of control
same,T/C,"dose: 400.0 mg/kg/injection, schedule: Q01DX001 (ip), vehicle: saline",87 % of control
CCOC(=O)C1CC2CC(C1=O)C2(C)C (centres undefined),T/C,[2],96 % of control
same,T/C,[4],101 % of control
same,T/C,"dose: 400.0 mg/kg/injection, schedule: Q04DX003 (ip), vehicle: saline with Tween-80",93 % of control
CC(C)N(CCSC(=O)N1c2ccccc2Sc2cccnc21)C(C)C,T/C,"dose: 5.0 mg/kg/injection, schedule: Q04DX003 (ip), vehicle: Klucel (hydroxypropylcellulose) (HPC)",90 % of control
same,T/C,"dose: 10.0 mg/kg/injection, schedule: Q04DX003 (ip), vehicle: Klucel (hydroxypropylcellulose) (HPC)",110 % of control
CC1(C)C2(C)CC12C (centres undefined),T/C,"dose: 2.5 mg/kg/injection, schedule: Q01DX009 (ip), vehicle: saline",92 % of control
same,T/C,"dose: 5.0 mg/kg/injection, schedule: Q01DX009 (ip), vehicle: saline",91 % of control
same,T/C,"dose: 10.0 mg/kg/injection, schedule: Q01DX009 (ip), vehicle: saline",87 % of control
CCC(C)c1cc(CN(C)C)cc(C(C)CC)c1O (centres undefined),T/C,"dose: 12.5 mg/kg/injection, schedule: Q01DX009 (ip), vehicle: Klucel (hydroxypropylcellulose) (HPC)",105 % of control
same,T/C,"dose: 25.0 mg/kg/injection, schedule: Q01DX009 (ip), vehicle: Klucel (hydroxypropylcellulose) (HPC)",105 % of control
same,T/C,"dose: 50.0 mg/kg/injection, schedule: Q01DX009 (ip), vehicle: Klucel (hydroxypropylcellulose) (HPC)",96 % of control
same,T/C,"dose: 100.0 mg/kg/injection, schedule: Q01DX009 (ip), vehicle: Klucel (hydroxypropylcellulose) (HPC)",102 % of control
O/N=C1/CCN2CCCc3cccc1c32,T/C,[2],94 % of control
same,T/C,[4],97 % of control
N#CCCP(=S)(c1ccccc1)c1ccccc1,T/C,"dose: 100.0 mg/kg/injection, schedule: Q01DX001 (ip), vehicle: other",104 % of control
same,T/C,"dose: 100.0 mg/kg/injection, schedule: Q04DX003 (ip), vehicle: other",102 % of control
same,T/C,"dose: 200.0 mg/kg/injection, schedule: Q01DX001 (ip), vehicle: other",98 % of control
same,T/C,"dose: 200.0 mg/kg/injection, schedule: Q04DX003 (ip), vehicle: other",96 % of control
same,T/C,"dose: 400.0 mg/kg/injection, schedule: Q01DX001 (ip), vehicle: other",102 % of control
same,T/C,"dose: 400.0 mg/kg/injection, schedule: Q04DX003 (ip), vehicle: other",90 % of control
O=C(N1CCC2(CC1)SSC1(CCN(C(=O)C(F)(F)F)CC1)S2)C(F)(F)F,T/C,[1],97 % of control
same,T/C,[3],97 % of control
same,T/C,[5],95 % of control

# — PubChem BioAssay AID248 (DTP/NCI, 2004)
